pIC50: −log10 of the molar value.
Key:
[1] = system: normal peripheral blood mononuclear cells (PBMCs); assay: in vitro
Excerpt: (§1) The human myeloma cell line RPMI8226 was obtained from American Type Culture Collection (Rockville, Md.). The MM1S myeloma cell line was provided by Dr. Steven Rosen (Northwestern University, Chicago, Ill.). Normal peripheral blood mononuclear cells (PBMCs) were isolated by Histopaque® density gradient centrifugation, according to the manufacturer's protocol (Sigma-Aldrich, St. Louis, Mo.). Myeloma cell lines and PBMCs were maintained in RPMI 1640 (Omega Scientific, Tarzana, Calif.) supplemented with 10% fetal bovine serum, 2 mM L-glutamine, 100 IU/mL penicillin, 100 μg/mL streptomycin, and essential amino acids in an atmosphere of 5% carbon dioxide (CO2) at 37° C.
(§2) Cells were seeded at 10^5 cells/100 μL/well in 96-well plates and incubated for 24 hours. RPMI8226 and MM1S cells were cultured in the presence of vehicle, COMPOUND 1, bortezomib, melphalan, COMPOUND 1+bortezomib, or COMPOUND 1+melphalan for 48 hours. After the incubation period, cell viability was quantified using the CellTiter 96® AQueous Non-Radioactive Cell Proliferation Assay (Promega, Madison, Wis.). Each well was treated with MTS (3-(4,5-dimethylthiazol-2-yl)-5-(3-carboxymethoxyphenyl)-2-(4-sulfophenyl)-2H-tetrazolium, inner salt) for 1 to 4 hours, after which absorbance was recorded at 490 nm. The quantity of formazan product as measured by absorbance at 490 nm is directly proportional to the number of living cells in culture.
(§3) In order for therapy with two or more PIs to be feasible in vivo, the combination must spare non-neoplastic cells. […] A healthy donor's PBMCs were cultured for 48 hours in the presence of COMPOUND 1 alone, bortezomib alone, or both agents together, and cell viability was quantified by MTS assay.

[2] = in vitro; details: human
Excerpt: as §1, §2, §3

[3] = system: RPMI8226 cells; assay: Cell viability assay (MTS assay), RPMI8226 cells; assay type: cell-based, human; details: RPMI8226, 48 hours
Procedure: Combination indices (CIs) were calculated separately for each combination. […] CIs between 0.9 and 1.1 were considered to indicate additive drug effects (31).

[4] = system: RPMI8226 cells; assay: Apoptotic assay by annexin V and propidium iodide staining; assay type: cell-based, human; details: 2.5 nM for each drug, 30 hours
Procedure: To quantify apoptosis in response to drug treatment, RPMI8226 cells (5×10^5 cells per well) were incubated with vehicle or PIs at 37° C. and 5% CO2 for 30 hours. As a positive control, cells were incubated with 250 ng/mL of actinomycin D for 24 or 48 hours. Cells were then washed twice with phosphate-buffered saline, resuspended in binding buffer (100 mM HEPES/NaOH, pH 7.5 containing 1.4 M NaCl and 25 mM CaCl2), and stained with fluorescein isothiocyanate (FITC)-conjugated annexin V and with the fluorescent dye propidium iodide (PrI), according to the manufacturer's protocol (BioVision, Mountain View, Calif.). For each drug treatment, 1×10^5 gated events were recorded. Cells negative for both PI and annexin V staining were considered live; annexin V-positive, PrI-negative cells were considered early apoptotic; annexin V-positive, PrI-positive cells were considered late apoptotic. Flow cytometric analyses were performed using a Beckman Coulter FC500 cytometer with Cytomics CXP software (Beckman Coulter, Fullerton, Calif.).

Structure (SMILES): CC(C)C[C@H](NC(=O)[C@@H](NC(=O)c1cccc(-c2ccccc2)n1)[C@@H](C)O)B(O)O [COMPOUND 1, [(1R)-1-[[(2S,3R)-3-hydroxy-2-[6-phenyl-pyridine-2-carbonyl)amino]-1-oxobutyl]amino]-3-methylbutylboronic acid]
- cytotoxic effects on normal PBMCs [1]: negligible cytotoxic effects
- viability at 48 h, 0.009 µM [2]: ~75%
- pIC50 ([3]; Homo sapiens, RPMI-8226): 8.07
- cytotoxicity at 0.009 µM ([3]; Homo sapiens, RPMI-8226, single-agent COMPOUND 1 9.0 nM, read-out: decrease in cell viability): 64%
- inhibition of viability ([3]; COMPOUND 1 0.1-10 nM): concentration-dependent inhibition of viability
- proportion of cells in early apoptosis (PrI−/Annexin V+) [4]: 10.4 % of cells
